In patent publication US20220265706A1, “PHARMACEUTICAL COMPOSITION CONTAINING COMPLEXES OF ALLOFERON AND ZINC” (priority 2019, published 2022):

Key:
[1] = test system: Herpes Simplex Virus Type 2 (HSV-2) Strain G (ATCC VR-734); assay: Protective action in a model of herpetic infection in mice; type: in vivo, White outbred mice; details: HSV-2 vaginal infection, 1.25 mg/kg (Acyclovir 50 mg/kg); for N14, number of animal deaths in a group on the 14th day after infection: 20 mice per group; for N14, number of animal deaths in a group on the 14th day after infection / M, mortality rate: i.p. once a day for 3 days; for M, mortality rate / IP, index of protection: 14 days follow-up; for IP, index of protection: relative to control mortality 60.0%
Description: The developed compositions were assessed for their protective action on the basis of a herpetic infection model. The following reference products were used: 1/Allokin-alfa, Lyophilisate for Solution for Subcutaneous Administration, a medicinal product used to treat genital herpes, containing 1 mg of alloferon per ampoule; 2/Acyclovir, a medicinal product used in the conventional herpes therapy.
White outbred mice (females) weighing 16 to 20 g were received from Rappolovo Nursery (Leningrad Oblast) and maintained on a standard diet under controlled vivarium conditions. The animals for the experimental groups were selected on a random basis. The animals were divided into 5 groups of 20 animals each: four experimental groups in which the animals received injections of Composition 1, Composition 2, Allokin-alfa, and Acyclovir, respectively, and one control group in which the animals received injections of 0.9% sodium chloride solution.
The study was made with the use of Herpes Simplex Virus Type 2 (HSV-2) Strain G (ATCC VR-734). The infection was introduced vaginally. Vaginal epithelium was injured with the use of a vaginal smearing scarifier, after which the animals were infected with the virus at a dose of 1.7×10^5TCID50 in the amount of 30 mcL.
Allokin-alfa and Compositions 1 and 2 were administered to the animals intraperitoneally at a dose of 1.25 mg/kg once a day for 3 days after the infection introduction. Acyclovir was administered in accordance with the same scheme at a dose of 50 mg/kg. The control group received injections of 0.9% sodium chloride solution.
The animals were followed up for 14 days. Mortality in the control and experimental groups were recorded on a daily basis. Based on the data so obtained, mortality rates M (the ratio of animal deaths over 14 days to the total number of infected animals in a group) and the index of protection IP (the ratio between the difference of the control and experimental groups' mortality rates and the control group lethality rate) were calculated.

[2] = test system: Interferon Gamma; assay: Interferon gamma (IFN-γ) induction in mouse blood serum, solid phase immunoassay; type: in vivo; details: BALB/C mice, subcutaneous single dose 1 mg alloferon/kg; serum 3 hours after administration
Description: Furthermore, cytokine induction caused by using both components (alloferon and the zinc salt), where administered to a body separately in time, were determined. Six samples were tested: • 1. Alloferon (Allokin-alfa, Lyophilisate for Solution for Subcutaneous Administration)—a reference product, • 2. Composition 1, • 3. Composition 2, • 4. […] 0.9% sodium chloride solution—control.
(§1) Samples 1, 2, 3, and 5 contained alloferon at the concentration of 1 mg/mL. The alloferon solution in Samples 1 and 5 was produced by dissolving the contents of an Allokin-alfa ampoule (1 mg of alloferon) in 1 mL of 0.9% sodium chloride solution. […] To determine the background content of IFN-γ and IL-18 in the subject animals' blood serum, a 0.9% sodium chloride solution was used.
(§2) The experiments enrolled BALB/C mice, females, weighing 16 to 22 grams, 18 weeks of age, divided into 6 groups of 15 individuals each. The samples were administered subcutaneously in a single dose of 1 mg of alloferon per 1 kg laboratory animal body weight. Sample 5 components were administered separately, one 15 minutes after the other.

[3] = test system: Interleukin 18; assay: Interleukin 18 (IL-18) induction in mouse blood serum; type: in vivo; details: BALB/C mice, subcutaneous single dose 1 mg alloferon/kg; serum 36 hours after administration
Description: Six samples were tested: • 1. Alloferon (Allokin-alfa, Lyophilisate for Solution for Subcutaneous Administration)—a reference product, • 2. Composition 1, • 3. Composition 2, • 4. […] 0.9% sodium chloride solution—control.
as §1, §2
In case of the control group, the confidence interval was calculated based on measurements of the same sample dilutions. For the experimental groups, the confidence interval was calculated based on three samples from three animals for each measuring point.

| Compound | N14, number of animal deaths in a group on the 14th day after infection [1] | M, mortality rate [1] [%] | IP, index of protection [1] [%] | Interferon Gamma, after 3 hours (mg/mL of blood serum) [2] | Interleukin 18, after 36 hours (mg/mL of blood serum) [3] |
| --- | --- | --- | --- | --- | --- |
| Nc1nc2c(ncn2COCCO)c(=O)[nH]1 [Acyclovir] | 3 | 15.0 | 75.0 | – | – |
| alloferon | 4 | 20.0 | 66.7 | 95 ± 16 mg/mL of blood serum | 360 ± 20 mg/mL of blood serum |
| CC(=O)[O-].CC(=O)[O-].[Zn+2] [Zinc acetate] | – | – | – | 82 ± 8 mg/mL of blood serum | 194 ± 12 mg/mL of blood serum |
